In ChEMBL document CHEMBL3431459, “Roche carnitine palmitoyltransferase modulator screening data (supplementary data associated with the publication CHEMBL2216752)”:
≈ marks a conversion by molar mass, not a printed value.

Key:
[1] = target: T1, Carnitine O-palmitoyltransferase 1, liver isoform (Homo sapiens, UniProt P50416); assay: (§1) SUPPLEMENTARY: Inhibition of Carnitine palmitoyltransferase 1, liver isoform
T1 sequence (P50416 whole entry): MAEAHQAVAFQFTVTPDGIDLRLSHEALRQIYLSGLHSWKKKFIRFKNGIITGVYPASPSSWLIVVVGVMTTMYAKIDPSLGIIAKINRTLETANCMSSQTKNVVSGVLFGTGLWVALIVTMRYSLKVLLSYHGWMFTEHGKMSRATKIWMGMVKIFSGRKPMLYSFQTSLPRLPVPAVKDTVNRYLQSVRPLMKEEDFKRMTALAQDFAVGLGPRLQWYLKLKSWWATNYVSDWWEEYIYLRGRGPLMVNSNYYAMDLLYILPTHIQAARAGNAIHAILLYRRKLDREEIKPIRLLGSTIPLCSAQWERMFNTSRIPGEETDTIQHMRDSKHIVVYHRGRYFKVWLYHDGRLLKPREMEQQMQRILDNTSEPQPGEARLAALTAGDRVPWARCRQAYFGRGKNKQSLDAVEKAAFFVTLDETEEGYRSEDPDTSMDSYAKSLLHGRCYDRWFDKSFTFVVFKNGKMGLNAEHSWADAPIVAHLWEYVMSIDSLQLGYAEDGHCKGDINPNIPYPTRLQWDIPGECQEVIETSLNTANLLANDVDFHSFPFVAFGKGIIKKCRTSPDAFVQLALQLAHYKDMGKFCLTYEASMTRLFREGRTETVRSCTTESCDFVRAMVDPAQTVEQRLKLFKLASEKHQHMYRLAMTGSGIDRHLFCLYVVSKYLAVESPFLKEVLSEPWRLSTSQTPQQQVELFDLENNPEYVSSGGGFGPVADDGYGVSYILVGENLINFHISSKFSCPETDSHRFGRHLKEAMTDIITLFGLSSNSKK

[2] = target: T2, Carnitine O-palmitoyltransferase 1, liver isoform (Rattus norvegicus, UniProt P32198); assay: as §1
T2 sequence (P32198 whole entry): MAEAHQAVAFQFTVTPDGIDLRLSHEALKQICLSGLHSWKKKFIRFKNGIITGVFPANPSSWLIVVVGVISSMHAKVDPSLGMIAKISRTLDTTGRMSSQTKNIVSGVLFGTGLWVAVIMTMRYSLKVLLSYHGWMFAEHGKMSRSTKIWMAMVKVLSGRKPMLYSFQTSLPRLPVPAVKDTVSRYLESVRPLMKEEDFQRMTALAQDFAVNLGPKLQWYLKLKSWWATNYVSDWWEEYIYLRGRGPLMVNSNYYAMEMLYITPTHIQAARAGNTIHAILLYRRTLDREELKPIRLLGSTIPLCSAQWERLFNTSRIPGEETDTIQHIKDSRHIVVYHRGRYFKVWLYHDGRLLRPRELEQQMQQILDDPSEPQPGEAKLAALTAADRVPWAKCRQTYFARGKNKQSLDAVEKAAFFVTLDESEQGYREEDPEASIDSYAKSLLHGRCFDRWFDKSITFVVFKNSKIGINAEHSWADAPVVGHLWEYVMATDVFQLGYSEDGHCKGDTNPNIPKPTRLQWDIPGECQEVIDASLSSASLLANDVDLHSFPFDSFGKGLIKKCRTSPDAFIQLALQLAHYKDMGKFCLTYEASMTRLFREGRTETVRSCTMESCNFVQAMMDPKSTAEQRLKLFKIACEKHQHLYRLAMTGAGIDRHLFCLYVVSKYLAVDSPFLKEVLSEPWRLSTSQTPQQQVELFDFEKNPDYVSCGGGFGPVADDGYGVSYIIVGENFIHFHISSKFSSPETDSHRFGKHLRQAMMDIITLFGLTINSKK

[3] = target: T3, Carnitine O-palmitoyltransferase 2, mitochondrial (Homo sapiens, UniProt P23786); assay: (§2) SUPPLEMENTARY: Inhibition of Carnitine palmitoyltransferase 2
T3 sequence (P23786 whole entry): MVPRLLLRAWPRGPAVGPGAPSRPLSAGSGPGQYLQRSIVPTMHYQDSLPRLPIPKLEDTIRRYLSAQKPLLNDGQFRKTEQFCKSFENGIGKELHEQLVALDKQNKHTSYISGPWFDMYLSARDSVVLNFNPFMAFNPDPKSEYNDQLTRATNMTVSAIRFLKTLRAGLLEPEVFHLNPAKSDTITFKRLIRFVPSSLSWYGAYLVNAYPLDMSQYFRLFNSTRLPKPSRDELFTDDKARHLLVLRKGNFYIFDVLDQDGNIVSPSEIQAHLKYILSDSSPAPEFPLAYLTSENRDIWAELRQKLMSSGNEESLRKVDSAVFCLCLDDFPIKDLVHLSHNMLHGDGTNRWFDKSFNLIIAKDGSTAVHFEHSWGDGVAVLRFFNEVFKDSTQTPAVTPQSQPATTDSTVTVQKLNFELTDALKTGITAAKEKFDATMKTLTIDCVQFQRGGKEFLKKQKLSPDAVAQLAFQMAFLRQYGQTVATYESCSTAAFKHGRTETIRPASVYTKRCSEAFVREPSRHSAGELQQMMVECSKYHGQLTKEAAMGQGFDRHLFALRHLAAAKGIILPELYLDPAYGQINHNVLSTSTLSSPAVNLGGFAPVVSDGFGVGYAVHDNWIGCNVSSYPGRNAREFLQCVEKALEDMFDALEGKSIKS

[4] = target: T4, Carnitine O-palmitoyltransferase 2, mitochondrial (Rattus norvegicus, UniProt P18886); assay: as §2
T4 sequence (P18886 whole entry): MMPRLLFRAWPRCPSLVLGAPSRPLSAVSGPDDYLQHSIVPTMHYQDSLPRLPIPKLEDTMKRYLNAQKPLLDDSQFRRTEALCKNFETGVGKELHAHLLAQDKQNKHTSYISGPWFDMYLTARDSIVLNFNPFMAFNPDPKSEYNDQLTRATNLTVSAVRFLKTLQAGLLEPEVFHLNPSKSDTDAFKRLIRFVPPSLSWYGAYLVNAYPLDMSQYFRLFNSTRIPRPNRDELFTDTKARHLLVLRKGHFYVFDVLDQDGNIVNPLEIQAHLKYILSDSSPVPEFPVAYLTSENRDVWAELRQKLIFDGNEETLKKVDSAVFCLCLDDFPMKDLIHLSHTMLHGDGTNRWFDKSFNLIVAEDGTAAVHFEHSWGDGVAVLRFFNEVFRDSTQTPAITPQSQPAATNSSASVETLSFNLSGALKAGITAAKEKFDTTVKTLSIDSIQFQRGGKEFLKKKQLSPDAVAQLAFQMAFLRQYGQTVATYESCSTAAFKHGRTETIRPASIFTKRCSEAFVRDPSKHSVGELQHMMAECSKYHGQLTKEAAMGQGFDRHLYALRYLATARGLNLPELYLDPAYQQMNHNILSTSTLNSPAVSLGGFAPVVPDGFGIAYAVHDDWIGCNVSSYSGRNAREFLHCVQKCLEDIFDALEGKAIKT

[5] = SUPPLEMENTARY: PAMPA permeability assay; assay type: physicochemical; conditions: read-out: Permeability
[6] = target: T5, Carnitine O-palmitoyltransferase 1, muscle isoform (Homo sapiens, UniProt Q92523); assay: SUPPLEMENTARY: Inhibition of Carnitine palmitoyltransferase 1, muscle isoform; set-up: species or system Muscle tissue
T5 sequence (Q92523 whole entry): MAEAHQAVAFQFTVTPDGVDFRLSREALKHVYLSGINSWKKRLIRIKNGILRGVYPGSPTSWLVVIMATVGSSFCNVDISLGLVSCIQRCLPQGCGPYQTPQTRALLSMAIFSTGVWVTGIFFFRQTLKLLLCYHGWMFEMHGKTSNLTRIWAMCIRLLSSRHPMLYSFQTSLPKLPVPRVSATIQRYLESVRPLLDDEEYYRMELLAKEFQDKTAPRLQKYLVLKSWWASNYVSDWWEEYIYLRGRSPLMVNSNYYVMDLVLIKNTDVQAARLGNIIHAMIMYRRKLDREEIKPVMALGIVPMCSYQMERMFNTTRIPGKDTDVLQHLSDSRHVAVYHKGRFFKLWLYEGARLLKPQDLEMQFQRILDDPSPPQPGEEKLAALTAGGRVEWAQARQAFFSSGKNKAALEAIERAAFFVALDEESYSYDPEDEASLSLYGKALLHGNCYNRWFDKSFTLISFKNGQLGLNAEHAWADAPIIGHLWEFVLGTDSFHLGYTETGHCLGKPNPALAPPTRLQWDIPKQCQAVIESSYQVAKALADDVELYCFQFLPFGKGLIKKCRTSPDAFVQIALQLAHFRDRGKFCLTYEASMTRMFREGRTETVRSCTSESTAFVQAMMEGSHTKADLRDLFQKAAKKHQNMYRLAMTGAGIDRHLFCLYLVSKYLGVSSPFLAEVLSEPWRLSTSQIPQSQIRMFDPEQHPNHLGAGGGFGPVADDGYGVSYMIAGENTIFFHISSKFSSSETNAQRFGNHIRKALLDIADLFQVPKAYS

[7] = SUPPLEMENTARY: Lyophilisation Solubility Assay (LYSA); assay type: physicochemical; conditions: read-out: Kinetic_solubility

COc1ccc(Cl)cc1CN1C(=O)OC(C)(C)c2ccc(C(=O)Nc3ccc(C(=O)O)c(Cl)c3)cc21
IC50 [1]: 245 nM | IC50 [2]: 50.8 nM | IC50 [3]: 4060 nM | IC50 [4]: 23900 nM | Papp [5]: 1.1 ×10⁻⁶ cm/s | IC50 [6]: 1220 nM | solubility kinetic [7]: 30 µg/mL (≈ 56.7 µM)

Cc1cc(C)cc(S(=O)(=O)n2ccc3ccc(C(=O)Nc4ccc(CC(=O)O)cc4)cc32)c1
IC50 [1]: 152 nM | IC50 [2]: 151 nM | IC50 [3]: > 100000 nM | IC50 [4]: > 100000 nM | Papp [5]: 1.89 ×10⁻⁶ cm/s | IC50 [6]: 950 nM | solubility kinetic [7]: 6 µg/mL (≈ 13 µM)

COc1ccc(Cl)cc1Cc1cn(C)c2ccc(C(=O)Nc3ccc(C(=O)O)cc3)cc12
IC50 [1]: 39.9 nM | IC50 [2]: 102 nM | IC50 [3]: 1350 nM | IC50 [4]: 9310 nM | Papp [5]: 0.47 ×10⁻⁶ cm/s | IC50 [6]: 2330 nM | solubility kinetic [7]: 23 µg/mL (≈ 51.2 µM)

O=C(Cn1cc(-c2ccccc2)c2ccccc21)Nc1ccc(C(=O)O)cc1
IC50 [1]: 474 nM | IC50 [2]: 1390 nM | IC50 [3]: 15400 nM | IC50 [4]: > 100000 nM | Papp [5]: 1.73 ×10⁻⁶ cm/s | IC50 [6]: 512 nM | solubility kinetic [7]: 19 µg/mL (≈ 51.3 µM)

COc1ccc(Cl)cc1Cn1ccc2ccc(C(=O)Nc3nc(CC(=O)O)cs3)cc21
IC50 [1]: 170 nM | IC50 [2]: 90.5 nM | IC50 [3]: > 100000 nM | IC50 [4]: > 100000 nM | Papp [5]: 1.14 ×10⁻⁶ cm/s | IC50 [6]: 24200 nM | solubility kinetic [7]: 13 µg/mL (≈ 28.5 µM)

COc1ccc(Cl)cc1S(=O)(=O)c1nn(C)c2ccc(C(=O)Nc3ccc(C(=O)O)cc3)cc12
IC50 [1]: 50 nM | IC50 [2]: 64.8 nM | IC50 [3]: > 100000 nM | IC50 [4]: > 100000 nM | Papp [5]: 1.89 ×10⁻⁶ cm/s | IC50 [6]: > 100000 nM | solubility kinetic [7]: 8 µg/mL (≈ 16 µM)

COc1ccc(Cl)cc1CN1C(=O)C2(CC2)c2ccc(C(=O)Nc3ccc(C(=O)O)cc3)cc21
IC50 [1]: 123 nM | IC50 [2]: 148 nM | IC50 [3]: 1270 nM | IC50 [4]: 19600 nM | Papp [5]: 1.24 ×10⁻⁶ cm/s | IC50 [6]: 11000 nM | solubility kinetic [7]: 13 µg/mL (≈ 27.3 µM)

COc1ccc(Cl)cc1S(=O)(=O)c1c[nH]c2ccc(C(=O)Nc3ccccc3)cc12
IC50 [1]: 114 nM | IC50 [2]: 83.8 nM | IC50 [3]: > 100000 nM | IC50 [4]: > 100000 nM | Papp [5]: 0.06 ×10⁻⁶ cm/s | IC50 [6]: > 100000 nM | solubility kinetic [7]: 1 µg/mL (≈ 2.27 µM)

COc1ccc(Cl)cc1S(=O)(=O)c1cn(CC(N)=O)c2ccc(C(=O)Nc3ccccc3)cc12
IC50 [1]: 12.8 nM | IC50 [2]: 17.1 nM | IC50 [3]: > 100000 nM | IC50 [4]: > 100000 nM | Papp [5]: 0.3 ×10⁻⁶ cm/s | IC50 [6]: > 100000 nM | solubility kinetic [7]: 2 µg/mL (≈ 4.02 µM)

COc1ccc(Cl)cc1S(=O)(=O)N1CCc2c(C)cc(C(=O)Nc3nc(CC(=O)O)cs3)cc21
IC50 [1]: 19.3 nM | IC50 [2]: 12 nM | IC50 [3]: > 100000 nM | IC50 [4]: > 100000 nM | Papp [5]: 2.03 ×10⁻⁶ cm/s | IC50 [6]: > 100000 nM | solubility kinetic [7]: 249 µg/mL (≈ 477 µM)

COc1ccc(Cl)cc1S(=O)(=O)c1nn(CCC(=O)O)c2ccc(C(=O)Nc3ccccc3)cc12
IC50 [1]: 14.7 nM | IC50 [2]: 6.6 nM | IC50 [3]: > 100000 nM | IC50 [4]: > 100000 nM | Papp [5]: 0.67 ×10⁻⁶ cm/s | IC50 [6]: 49400 nM | solubility kinetic [7]: 25 µg/mL (≈ 48.6 µM)

Cc1cc(C)cc(S(=O)(=O)c2nn(CC(=O)O)c3ccc(C(=O)Nc4ccccc4)cc23)c1
IC50 [1]: 33.7 nM | IC50 [2]: 21.7 nM | IC50 [3]: > 100000 nM | IC50 [4]: > 100000 nM | Papp [5]: 0.01 ×10⁻⁶ cm/s | IC50 [6]: 8830 nM | solubility kinetic [7]: 71 µg/mL (≈ 153 µM)
